Results reported in patent US11071731B2, “Allosteric modulators of the mu opioid receptor” (Chiromics, LLC, priority 2017, dated 2021).

Assays:
mu opioid receptor (MOR) [1] = target: T1, mu opioid receptor (MOR) (Homo sapiens, UniProt P35372); assay: PathHunter β-arrestin recruitment assay, PAM mode with EC20 endomorphin-1; assay type: cell-based; conditions: for β-arr Max. Resp.: maximal response for β-arrestin recruitment
Method: The effects of MOR PAMs and MOR SAMs on receptor activity were assayed using the PathHunter enzyme complementation assay technology (DiscoveRx, CA). A description of the technology employed is as follows.
Beta-Arrestin Pathway: The PathHunter β-arrestin assay monitors the activation of a GPCR in a homogenous, non-imaging assay format using a technology developed by DiscoveRx called Enzyme Fragment Complementation (EFC) with beta-galactosidase (β-Gal) as the functional reporter. […] EA is fused to β-Arrestin and ED is fused to the GPCR of interest. When the GPCR is activated and β-arrestin is recruited to the receptor, ED and EA complementation occurs, restoring β-gal activity, which is measured using chemiluminescent PathHunter Detection Reagents.
In this manner an EC50 for each test compound, and percent maximal response for each test compound, were determined for both the β-arrestin and cAMP pathways. Though the pharmacological effects of a given signal bias can be hypothesized (Raehal et al. (2011) Pharmacol. Rev. 63:1001-1019), it is not possible to know with certainty which bias ratio will be most advantageous in a clinical setting. […] Kenakin 2015a, supra. The information associated with the compounds detailed herein is the first large data set available for the prediction of ligand bias for an MOR PAM.

mu opioid receptor (MOR) [2] = target: T1, mu opioid receptor (MOR); assay: Hit Hunter cAMP signaling assay (adenylyl cyclase inhibition), PAM mode with EC20 endomorphin-1; assay type: cell-based; conditions: for cAMP Max. Resp.: maximal response for adenylyl cyclase inhibition
[3] = β-arrestin recruitment, read-out: β-arr. EC50
[4] = cAMP EC50, adenylyl cyclase inhibition
[5] = adenylyl cyclase inhibition, read-out: cAMP EC50

T1 sequence (P35372 whole entry): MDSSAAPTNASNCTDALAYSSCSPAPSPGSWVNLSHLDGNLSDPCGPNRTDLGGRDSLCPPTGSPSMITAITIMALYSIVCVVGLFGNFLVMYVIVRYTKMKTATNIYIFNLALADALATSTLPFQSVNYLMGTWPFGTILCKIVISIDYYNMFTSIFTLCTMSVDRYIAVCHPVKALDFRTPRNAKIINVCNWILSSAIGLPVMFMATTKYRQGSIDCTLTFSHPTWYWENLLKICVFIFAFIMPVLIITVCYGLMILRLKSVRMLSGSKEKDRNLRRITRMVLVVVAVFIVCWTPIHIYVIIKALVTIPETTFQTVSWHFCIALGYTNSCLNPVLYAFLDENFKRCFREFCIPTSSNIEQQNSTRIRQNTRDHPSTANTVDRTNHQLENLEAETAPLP

**Q.** How did the “β-arr Max. Resp.” value (mu opioid receptor (MOR) [1]) turn out when Fc1ccc(C2CCCCN2Cc2cc(Cl)ccc2F)cc1 (stereo not drawn) [compound 163] was run?
**A.** F (F represents a maximal response of > 60%)

**Q.** And the EC50 (mu opioid receptor (MOR) [1]; [3])?
**A.** 0.7 to 2.1 µM

**Q.** And the EC50 (mu opioid receptor (MOR) [2]; [4])?
**A.** < 0.7 µM

**Q.** And the “cAMP Max. Resp.” value (mu opioid receptor (MOR) [2])?
**A.** E (E represents a maximal response of 40-60%)

**Q.** What does the source list for [2H]C1(c2cccc(C(F)(F)F)c2)C(F)CCCN1Cc1cccc(Br)c1 (stereo not drawn) [compound 206]?
**A.** β-arr Max. Resp. (mu opioid receptor (MOR) [1]): F (F represents a maximal response of > 60%); EC50 (mu opioid receptor (MOR) [1]; [3]): 0.7 to 2.1 µM; EC50 (mu opioid receptor (MOR) [2]; [4]): 0.7 to 2.1 µM; cAMP Max. Resp. (mu opioid receptor (MOR) [2]): E (E represents a maximal response of 40-60%)

**Q.** What does the source list for Fc1cnc(Cl)nc1N1CCCCC1c1ccc2ncsc2c1 (stereo not drawn) [compound 341]?
**A.** β-arr Max. Resp. (mu opioid receptor (MOR) [1]): D (D represents a maximal response of < 40%); EC50 (mu opioid receptor (MOR) [1]; [3]): < 0.7 µM; EC50 (mu opioid receptor (MOR) [2]; [4]): < 0.7 µM; cAMP Max. Resp. (mu opioid receptor (MOR) [2]): D (D represents a maximal response of < 40%)

**Q.** For Cc1ncc(F)c(N2CCCCC2c2cccc(C(F)(F)F)c2)n1 (stereo not drawn) [compound 269], which “β-arr Max. Resp.” value (mu opioid receptor (MOR) [1]) is on record?
**A.** F (F represents a maximal response of > 60%)

**Q.** What about the EC50 (mu opioid receptor (MOR) [1]; [3]) of the same compound?
**A.** > 2.1 µM

**Q.** What about the EC50 (mu opioid receptor (MOR) [2]; [4]) of the same compound?
**A.** > 2.1 µM

**Q.** And the “cAMP Max. Resp.” value (mu opioid receptor (MOR) [2])?
**A.** D (D represents a maximal response of < 40%)

**Q.** How did the “β-arr Max. Resp.” value (mu opioid receptor (MOR) [1]) turn out when O=S(=O)(c1ccc(Cl)cc1)N1CCCCC1c1nccc(C(F)(F)F)n1 (racemic) [compound 73] was run?
**A.** F (F represents a maximal response of > 60%)

**Q.** And the “β-arrestin Max Response” value (mu opioid receptor (MOR) [1]; β-arrestin recruitment, activity switching by MOR PAMs)?
**A.** F (F represents a maximal response of >60%)

**Q.** And the EC50 (mu opioid receptor (MOR) [1]; β-arrestin recruitment, activity switching by MOR PAMs, read-out: β-arrestin EC50)?
**A.** > 2.1 µM

**Q.** And the EC50 (mu opioid receptor (MOR) [1]; [3])?
**A.** > 2.1 µM

**Q.** What about the “cAMP Max Resp.” value (mu opioid receptor (MOR) [2]; adenylyl cyclase inhibition, activity switching by MOR PAMs) of the same compound?
**A.** D (D represents a maximal response of < 40%)

**Q.** What about the EC50 (mu opioid receptor (MOR) [2]; adenylyl cyclase inhibition, activity switching by MOR PAMs, read-out: cAMP EC50) of the same compound?
**A.** > 2.1 µM

**Q.** What about the EC50 (mu opioid receptor (MOR) [2]; [5]) of the same compound?
**A.** > 2.1 µM

**Q.** And the “cAMP Max. Resp.” value (mu opioid receptor (MOR) [2])?
**A.** D (D represents a maximal response of < 40%)

**Q.** What does the source list for Cc1cccc(C2CCCCN2c2nc(Cl)ncc2F)n1 (stereo not drawn) [compound 414]?
**A.** β-arr Max. Resp. (mu opioid receptor (MOR) [1]): D (D represents a maximal response of < 40%); EC50 (mu opioid receptor (MOR) [1]; [3]): < 0.7 µM; EC50 (mu opioid receptor (MOR) [2]; [4]): < 0.7 µM; cAMP Max. Resp. (mu opioid receptor (MOR) [2]): D (D represents a maximal response of < 40%)

**Q.** For O=S(=O)(c1ccc(Cl)cc1)N1CCCC(F)C1c1ccc(F)c(Br)c1 (stereo not drawn) [Compound 29], which EC50 (mu opioid receptor (MOR) [1]; [3]) is on record?
**A.** > 2.1 µM

**Q.** What about the EC50 (mu opioid receptor (MOR) [2]; [5]) of the same compound?
**A.** > 2.1 µM

**Q.** For Cc1cc(C2CCCCN2c2nc(Cl)ncc2F)ccc1F (stereo not drawn) [compound 130], which “β-arr Max. Resp.” value (mu opioid receptor (MOR) [1]) is on record?
**A.** F (F represents a maximal response of > 60%)

**Q.** What about the EC50 (mu opioid receptor (MOR) [1]; [3]) of the same compound?
**A.** < 0.7 µM

**Q.** And the EC50 (mu opioid receptor (MOR) [2]; [4])?
**A.** 0.7 to 2.1 µM

**Q.** And the “cAMP Max. Resp.” value (mu opioid receptor (MOR) [2])?
**A.** E (E represents a maximal response of 40-60%)

**Q.** Which results are given for Cc1cnc(N2CCCCC2c2cccc(C(F)(F)F)c2)nc1Cl (stereo not drawn) [compound 266]?
**A.** β-arr Max. Resp. (mu opioid receptor (MOR) [1]): E (E represents a maximal response of 40-60%); EC50 (mu opioid receptor (MOR) [1]; [3]): > 2.1 µM; EC50 (mu opioid receptor (MOR) [2]; [4]): > 2.1 µM; cAMP Max. Resp. (mu opioid receptor (MOR) [2]): D (D represents a maximal response of < 40%)

**Q.** Which results are given for Fc1c(Cl)cccc1C1CCCCN1c1ccnc(Cl)n1 (stereo not drawn) [compound 405]?
**A.** β-arr Max. Resp. (mu opioid receptor (MOR) [1]): D (D represents a maximal response of < 40%); EC50 (mu opioid receptor (MOR) [1]; [3]): < 0.7 µM; EC50 (mu opioid receptor (MOR) [2]; [4]): < 0.7 µM; cAMP Max. Resp. (mu opioid receptor (MOR) [2]): D (D represents a maximal response of < 40%)

**Q.** Which “β-arr Max. Resp.” value (mu opioid receptor (MOR) [1]) does the source give for Fc1cnc(Cl)nc1N1CCCCC1c1cc(C(F)(F)F)c2[nH]ncc2c1 (stereo not drawn) [compound 352] here?
**A.** D (D represents a maximal response of < 40%)

**Q.** What about the EC50 (mu opioid receptor (MOR) [1]; [3]) of the same compound?
**A.** < 0.7 µM

**Q.** And the EC50 (mu opioid receptor (MOR) [2]; [4])?
**A.** < 0.7 µM

**Q.** What about the “cAMP Max. Resp.” value (mu opioid receptor (MOR) [2]) of the same compound?
**A.** D (D represents a maximal response of < 40%)

**Q.** For O=S(=O)(c1ccc(Cl)cc1)N1CCCCC1c1ccc(F)cc1 (racemic) [compound 78], which “β-arr Max. Resp.” value (mu opioid receptor (MOR) [1]) is on record?
**A.** F (F represents a maximal response of > 60%)

**Q.** And the EC50 (mu opioid receptor (MOR) [1]; [3])?
**A.** 0.7 to 2.1 µM

**Q.** What about the EC50 (mu opioid receptor (MOR) [2]; [5]) of the same compound?
**A.** < 0.7 µM

**Q.** What about the “cAMP Max. Resp.” value (mu opioid receptor (MOR) [2]) of the same compound?
**A.** E (E represents a maximal response of 40-60%)

**Q.** Fc1cnc(Cl)nc1N1CCCCC1c1cccc(OC(F)(F)F)n1 (stereo not drawn) [compound 131] was tested. Which “β-arr Max. Resp.” value (mu opioid receptor (MOR) [1]) did it give?
**A.** F (F represents a maximal response of > 60%)

**Q.** And the EC50 (mu opioid receptor (MOR) [1]; [3])?
**A.** 0.7 to 2.1 µM

**Q.** And the EC50 (mu opioid receptor (MOR) [2]; [4])?
**A.** 0.7 to 2.1 µM

**Q.** What about the “cAMP Max. Resp.” value (mu opioid receptor (MOR) [2]) of the same compound?
**A.** D (D represents a maximal response of < 40%)

**Q.** Which results are given for Fc1cc(C2CCCCN2Cc2cccc(Cl)c2)cc(C(F)(F)F)c1 (stereo not drawn) [compound 157]?
**A.** β-arr Max. Resp. (mu opioid receptor (MOR) [1]): F (F represents a maximal response of > 60%); EC50 (mu opioid receptor (MOR) [1]; [3]): > 2.1 µM; EC50 (mu opioid receptor (MOR) [2]; [4]): > 2.1 µM; cAMP Max. Resp. (mu opioid receptor (MOR) [2]): E (E represents a maximal response of 40-60%)

**Q.** For O=S(=O)(c1ccc(Cl)cc1)N1CCCCC1c1ccc(F)nc1 (racemic) [compound 53], which “β-arr Max. Resp.” value (mu opioid receptor (MOR) [1]) is on record?
**A.** F (F represents a maximal response of > 60%)

**Q.** And the EC50 (mu opioid receptor (MOR) [1]; [3])?
**A.** > 2.1 µM

**Q.** What about the EC50 (mu opioid receptor (MOR) [2]; [5]) of the same compound?
**A.** > 2.1 µM

**Q.** And the “cAMP Max. Resp.” value (mu opioid receptor (MOR) [2])?
**A.** F (F represents a maximal response of > 60%)

**Q.** With Fc1cnc(Cl)nc1N1CCCCC1c1cncc(C(F)(F)F)n1 (stereo not drawn) [compound 274] as the compound, how does the “β-arr Max. Resp.” value (mu opioid receptor (MOR) [1]) read?
**A.** F (F represents a maximal response of > 60%)

**Q.** What about the EC50 (mu opioid receptor (MOR) [1]; [3]) of the same compound?
**A.** > 2.1 µM

**Q.** And the EC50 (mu opioid receptor (MOR) [2]; [4])?
**A.** 0.7 to 2.1 µM

**Q.** What about the “cAMP Max. Resp.” value (mu opioid receptor (MOR) [2]) of the same compound?
**A.** D (D represents a maximal response of < 40%)
